Experimental data as given in patent publication US20180207228A1, “PEPTIDE COMBINATIONS AND USES THEREOF FOR TREATING GRASS ALLERGY” (ALK-Abelló A/S, priority 2015, published 2018).
Where no end group is shown, it is not given here.

What was measured:
Format in all cases: cell-based, human
[1] = test system: release of IFN-γ upon T cell activation; assay: Fluorospot assay, IFN-γ release (DK1-TCL01, US1-TCL01); conditions: head prints TCL-02 DK1; 17 TCL-01 DK1 lines
Protocol: (§1) Grass allergic donors were recruited (cohort DK1 including 30 grass allergic individuals, DK2 including 24 grass allergic individuals and US1 including 15 grass allergic individuals). PBMCs were isolated from freshly drawn heparinized blood by gradient centrifugation on lymphoprep (Nycomed, Norway), washed twice and re-suspended in RPMI 1640 medium with HEPES and ultraglutamine (Cambrex, Belgium) supplemented with 5% v/v human AB-serum (Cambrex, Belgium), 100 units/ml penicillin, and 0.1 mg/ml streptomycin (Sigma, St Louis, USA) (referred to as 5% AB-medium). Aliquots of the isolated PBMCs were frozen and were thawed later to stimulate the T cell lines. Additionally either fresh or thawed PBMCs were used as antigen presenting cells (APCs) in the proliferation assay as described later. In some cases the PBMCs were freezed at this stage and thawed later on to continue the experiment as described in the following. The isolated PBMCs (fresh or thawed) were CD8 depleted by MACS magnetic depletion according to the manufacturer's instructions (Miltenyi Biotec, Bergisch Gladbach, Germany). On day 0 the CD8-depleted PBMCs (2×10^6/ml) were stimulated in 1 ml bulk cultures in AB medium in 24 well plates (Nunc, Denmark) with the mixture of natural allergens: nPhl p 1 (0.5 μg/ml), mix of nPhl p 2/nPhl p 3 (1.0 μg/ml), nPhl p 4 (0.5 μg/ml), nPhl p 5 (0.5 μg/ml) and nCyn d 1 (0.5 μg/ml). Amount of 65 U, 30 U, and 30 U recombinant IL-2 (Chiron, USA) were added per well at days 5, 6 and 7, respectively. On day 14 cells were harvested to obtain T cell line generation 01 (referred to as TCL01).
(§2) On day 14 the T cells of TCL01 were isolated, washed and counted. The isolated T cells of TCL01 generation were used to perform either ELISpot or Fluorospot assay. TCL01 were further re-stimulated as described in the next paragraph for use in T cell proliferation. The aliquot for use in T cell proliferation was re-stimulated on day 14 to carry out proliferation experiment at day 24.
(§3) In the Fluorospot assays, release of IL-5 and IFN-γ upon T cell activation (of donor derived lines DK1-TCL01, and US1-TCL01) with a peptide or a peptide-mix described herein was measured by Fluorospot assay kit (Mabtech AB) and procedures were followed as per manufacturer's instructions. Briefly anti-human IL-5 and anti-human IFN-γ coated 96 well plates were obtained and blocked with 10% AB serum in RPMI. The plates were washed thoroughly and the isolated T cells were plated and incubated with either single peptides (2 μg/ml) or peptide mixes (2 μg/ml), or allergens nPhl p1, nPhl p 2, nPhl p 3, nPhl p 4, nPhl p 5, Cyn d 1 at 2 μg/ml for 20 hrs/37° C./5% CO2. After the incubation time the cells were removed by emptying the plate. Detection antibodies 7-B6-1-FS-FITC (1:200) and 5A10-biotin (2 μg/ml) were diluted in PBS-0.1% BSA and were added to the plate and incubated for 2 hours/room temperature (RT). There-after the plates were washed and anti-FITC-green (1:200) and SA-Red (1:200) diluted in PBS±0.1% BSA were added and incubated for 1 hour/RT/dark. After the incubation period the plates were washed, emptied and fluorescence enhancer solution was added for 15 minutes/RT. Plates were emptied, fluorescence enhancer solution was firmly tapped out against a clean paper, soft plastic under drain was removed and the plates were left in the dark to dry. The counts were inspected in a fluorospot reader. Hit criteria for peptide were 20 SFCs/10^6 PBMCs, p≤0.05 and poisson 0.05 stimulated cells compared to background, and a stimulation index (SI)≥2.
(§4) The peptides were identified as hits if they fulfilled the criteria as mentioned below where stimulation index (SI) value of 2 or above, Poisson value=<0.05 and P value=<0.05, SFC>=20 (IL-5/IFN-g)/10^6 cells and CPM>=1000 (proliferation) SI can be defined as [[…]/medium control] in a Fluorospot assay and [counts per minute (cpm)/medium control] in a proliferation assay.

[2] = test system: allergen specific T cells; assay: T cell proliferation assay (72 h) on donor derived T cell lines (TCL02/TCL03); conditions: for Proliferation % donor coverage (TCL-02 DK1): T cell lines TCL-02 DK1, 30 donors, hit criteria SI>=2, CPM>=1000; for Proliferation strength (TCL-02 DK1): T cell lines TCL-02 DK1, strength of response (average relative magnitude)
How it was run: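 CD8-depleted PBMCs from grass-allergic donors stimulated with natural grass allergen mix (nPhl p 1 0.5 μg/ml) to raise T cell lines; restimulated with irradiated APCs, allergens or PHA-P (0.5 μg/ml) plus rIL-2. Proliferation to overlapping 20-mer and selected 15-mer grass peptides tested with TCL02 (day 24) or TCL03 (day 34).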

[3] = test system: release of IL-5 upon T cell activation; assay: Fluorospot assay, IL-5 release (DK1-TCL01, US1-TCL01); conditions: head prints TCL-02 DK1; text: 25 TCL-01 DK1 lines
Protocol: as §1, §2, §3, §4

Substance | IFN-gamma % donor coverage (TCL-02 DK1) [1] [%] | Proliferation % donor coverage (TCL-02 DK1) [2] [%] | Proliferation strength (TCL-02 DK1) [2] | IL-5-Fluorospotr % donor coverage (TCL-02 DK1) [3] [%]
AYKTAEGATPEAKYDAYVAT-OH [compound 79] | 0.00 | 26.67 | 3.30 | 0.00
DGKARTAWVDSGAQLGELYY-OH [compound 54] | 4.00 | 26.67 | 4.20 | 4.00
DKYRTFVATFGAASNKAFAE-OH [compound 64] | 0.00 | 36.67 | 6.00 | 16.00
EAAFNNAIKASTGGAYESYK-OH [compound 83] | 0.00 | 10.00 | 0.90 | 0.00
EAKYDAYVATLSEALRIIAG-OH [compound 66] | 0.00 | 46.67 | 11.20 | 20.83
EGTKVTFHVEKGSNPNYLAL-OH [compound 24] | 4.00 | 36.67 | 7.40 | 16.00
EIKSTKPEASSGEPVVVHIT-OH [compound 3] | 8.00 | 36.67 | 3.40 | 8.00
ELTLQFRRVKSKYPSGTKIT-OH [compound 102] | 8.00 | 33.33 | 4.70 | 4.00
EPIFKDGLGSRASYEIKSKE-OH [compound 95] | 4.00 | 20.00 | 2.20 | 0.00
EQKLIEKINAGFKAALAAAA-OH [compound 62] | 0.00 | 36.67 | 6.20 | 4.00
EVELREHGSDEWVAMTKGEG-OH [compound 33] | 0.00 | 0.00 | 0.00 | 0.00
EWVAMTKGEGGVWTFDSEEP-OH [compound 27] | 4.00 | 13.33 | 2.30 | 8.00
FAVVDLNKMRAVWVDGKART-OH [compound 47] | 8.00 | 40.00 | 6.20 | 0.00
FRRVKSKYPEGTKVTFHVEK-OH [compound 23] | 0.00 | 20.00 | 1.60 | 4.00
GAASNKAFAEGLSGEPKGAA-OH [compound 76] | 0.00 | 16.67 | 1.60 | 0.00
GDEQKLRSAGELELQFRRVK-OH [compound 6] | 4.00 | 46.67 | 7.10 | 20.00
GFGMLLRKYGIAAENVIDVK-OH [compound 48] | 15.00 | 30.00 | 4.70 | 4.00
GFKAALAAAAGVPPADKYRT-OH [compound 63] | 0.00 | 26.67 | 4.10 | 12.00
GGASGYKDVDKPPFSGMTGS-OH [compound 18] | 0.00 | 16.67 | 2.30 | 0.00
GNTPIFKSGRGSGSSFEIKS-OH [compound 20] | 0.00 | 13.33 | 1.40 | 0.00
GQEDKLRKAGELTLQFRRVK-OH [compound 101] | 0.00 | 13.33 | 1.20 | 4.00
GRGSGSSFEIKSTKPEASSG-OH [compound 2] | 4.00 | 26.67 | 3.10 | 12.00
GRRHSVRIRVRSGGHDYEGL-OH [compound 51] | 0.00 | 10.00 | 0.40 | 0.00
GSDPKKLVLNIKYTRPGDSL-OH [compound 36] | 8.00 | 53.33 | 11.90 | 24.00
